From US6875418B2, “Method of early detection of Duchenne muscular dystrophy and other neuromuscular disease” (Mouse Specifics, Inc., priority 2001, dated 2005)

Experiments:
C57 mice [1] = experiment: Autonomic blockade, ECG heart rate and heart-rate variability in conscious C57 control mice; format: in vivo, mouse
Procedure: (§1) Male control C57BL/10ScSn (C57, n=15) and male mutant (mdx, n=15) mice (10-12 weeks old) were obtained from The Jackson Laboratory, Bar Harbor, Me. The animals were housed in standard conditions within the Animal Resource Facility at the Beth Israel Deaconess Medical Center. Handling and care of mice were consistent with federal and institutional guidelines.
(§2) ECGs were recorded in conscious mice as follows. Briefly, mice were gently removed from their cages and positioned on the ECG recording platform (AnonyMOUSE, Mouse Specifics, Inc., Boston, Mass.). An array of gel-coated ECG electrodes were embedded in the floor of the platform and spaced to provide contact between the electrodes and animals' paws. The electrodes were connected to an amplifier by three shielded conductive leads. As even modest handling of mice induces significant alterations in heart-rate, each mouse was permitted to acclimatize for 10 min prior to collection of baseline data. The signals were digitized with 16-bit precision at a sampling rate of 2000 samples/second. When mice were sitting or otherwise positioned such that the paws were not in contact with three electrodes, the output from the amplifier was discarded. Only data from continuous recordings of 15-25 ECG signals were used in the analyses.
Analyses of the ECGs were performed as described as follows. Each signal was analyzed using e-MOUSE, internet-based physiologic waveform analyses software. The program incorporates Fourier analyses and linear time-invariant digital filtering of frequencies below 2 Hz and above 100 Hz to minimize signal environmental disturbances. The software uses a peak detection algorithm to find the peak of the R-waves and to calculate heart-rate (HR). The inverted and/or biphasic portions of the T wave was included in calculations of the QT interval. The QT intervals were rate corrected (QTc) by an algorithm developed for use in mice. The software plots its interpretation of P, Q, R, S, and T for each beat so that spurious data resulting from unfiltered noise or motion artifacts may be rejected. The mean of the ECG time intervals for each set of waveforms is then calculated.
(§3) Heart-rate variability (HRV) was calculated as the standard deviation of all R—R intervals for each set of ECG signals. The coefficient of variance (CV,%) was calculated as the ratio of mean HRV to mean heart-rate.
Parasympathetic and sympathetic nervous system control of heart-rate regulation were investigated by pharmacological blockade. Mice received intraperitoneal administration of atropine (0.5 mg/kg) for parasympathetic blockade (n=15 mdx, n=15 C57), propranolol (1 mg/kg) for sympathetic blockade (n=10 mdx, n=7 C57), and atropine (0.5 mg/kg) plus propranolol (1 mg/kg) for combined β-adrenergic and muscarinic cholinergic blockade (n=10 mdx, n=7 C57). Baseline ECGs were recorded within 5 min prior to each administration and after a 5-10 min equilibrium phase after drug administration to allow for HR stabilization. The pharmacological interventions were performed on different days to prevent interference between drugs. […]
To study the effect of autonomic blockers on dystrophin deficient mice, parasympathetic and sympathetic nervous system control of heart-rate regulation were investigated by pharmacological blockade. […] Baseline ECGs were recorded within 5 min prior to each administration and after a 5-10 min equilibrium phase after drug administration to allow for HR stabilization.

nNOS -/- mice [2] = experiment: Autonomic blockade, ECG heart rate and heart-rate variability in conscious nNOS -/- mice
mdx mice [3] = experiment: Autonomic blockade, ECG heart rate and heart-rate variability in conscious mdx mice; format: in vivo, mouse
Procedure: as §1, §2
(§4) Analyses of the ECGs were performed as described as follows. Each signal was analyzed using e-MOUSE, internet-based physiologic waveform analyses software. […] The mean of the ECG time intervals for each set of waveforms is then calculated.
as §3
Parasympathetic and sympathetic nervous system control of heart-rate regulation were investigated by pharmacological blockade. […] Baseline ECGs were recorded within 5 min prior to each administration and after a 5-10 min equilibrium phase after drug administration to allow for HR stabilization. […]

B6129 mice = experiment: Baroreflex pressor response to phenylephrine in B6129 control mice; format: in vivo, mouse
C57 mice [4] = experiment: Baroreflex pressor response to phenylephrine after β-adrenergic blockade in C57 mice; format: in vivo, mouse; conditions: phenylephrine 3 mg/kg i.p. after propranolol 1 mg/kg
Procedure: as §2
as §4, with “software. The program incorporates Fourier analyses and linear time-invariant digital filtering of frequencies below 2 Hz and above 100 Hz to minimize signal environmental disturbances.” for “software.”
as §3
(§5) Mice were administered intraperitoneal phenylephrine (3 mg/kg) after β-adrenergic blockade with propranolol (1 mg/kg) to test for a baroreflex-mediated cardio-inhibitory response (n=10 mdx, n=7 C57).16,21 After baseline recordings, ECGs were recorded after a 5-10 min equilibrium phase following propranolol administration to allow for HR stabilization, and then within 2 min following phenylephrine administration. Changes in ECG indices following phenylephrine were determined relative to those recorded following propranolol administration. […]

nNOS -/- mice [5] = experiment: Baroreflex pressor response to phenylephrine in nNOS -/- mice; format: in vivo, mouse
mdx mice [6] = experiment: Baroreflex pressor response to phenylephrine after β-adrenergic blockade in mdx mice; format: in vivo, mouse; conditions: phenylephrine 3 mg/kg i.p. after propranolol 1 mg/kg
Procedure: as §2
as §4, with “software. The program incorporates Fourier analyses and linear time-invariant digital filtering of frequencies below 2 Hz and above 100 Hz to minimize signal environmental disturbances.” for “software.”
as §3, §5

[7] = C57 mice, i.p., 5-10 min after drug vs baseline, atropine 0.5 mg/kg, propranolol 1 mg/kg
[8] = phenylephrine after propranolol
[9] = within 2 min, relative to post-propranolol

Structure (SMILES): CN1[C@@H]2CC[C@H]1C[C@@H](OC(=O)C(CO)c1ccccc1)C2 (stereo partly shown) [atropine]
- direction of heart-rate change in individual mice (C57 mice [1]; C57 mice n=15, atropine 0.5 mg/kg i.p.): increased in all but 2 of the C57 mice
- HRV after atropine administration (C57 mice [1]; C57 mice, atropine 0.5 mg/kg i.p., baseline 2.7±0.9 ms): 0.5 ± 0.9 ms
- change in HRV (C57 mice [1]; [7]): -1.6 ± 0.7 ms
- directional change in HR in response to drug (nNOS -/- mice [2]; FIG. 5): significantly increased HR
- HR after atropine administration (nNOS -/- mice [2]; baseline 686±22 bpm, P=0.07): 721±12 bpm
- HRV after atropine administration (nNOS -/- mice [2]; from 2.6±0.1 ms, P<0.05): 0.7 ± 0.1 ms
- CV after atropine administration (nNOS -/- mice [2]; from 2.7±0.8%, P<0.05): 0.8±0.1%
- direction of heart-rate change in individual mice (mdx mice [3]; mdx mice n=15, atropine 0.5 mg/kg i.p.): decreased in all 15 mdx mice
- HR decreased by (mdx mice [3]; mdx mice, atropine 0.5 mg/kg i.p., FIG. 2a legend): 90±14 bpm

Structure (SMILES): CNC[C@H](O)c1cccc(O)c1 [phenylephrine]
- increase in HRV after phenylephrine (B6129 mice; Example 4): +11.8±3.7 ms
- change in HR after phenylephrine (B6129 mice; [8]): −360±6 bpm
- CV after phenylephrine administration (C57 mice [4]): 15.8±2.4%
- HRV after phenylephrine administration (C57 mice [4]): 28.6 ± 4.1 ms
- change in HR after phenylephrine (C57 mice [4]; [9]): −312±27 bpm
- increase in HRV after phenylephrine (nNOS -/- mice [5]; Example 4): +13.3±3.7 ms
- change in HR after phenylephrine (nNOS -/- mice [5]; [8]): −288±39 bpm
- CV after phenylephrine administration (mdx mice [6]): 6.0±1.7%
- HRV after phenylephrine administration (mdx mice [6]): 8.5 ± 2.5 ms
- change in HR after phenylephrine (mdx mice [6]; [9]): −132±27 bpm

Structure (SMILES): CC(C)NCC(O)COc1cccc2ccccc12 (stereo not shown) [propranolol]
- change in HRV (C57 mice [1]; [7]): more significant in C57 than mdx mice
- change in HR (C57 mice [1]; C57 mice, i.p., 5-10 min after drug vs baseline, atropine 0.5 mg/kg, propranolol 1 mg/kg, mean±SE): −122±53 bpm
- change in HR (mdx mice [3]; mdx mice, i.p., 5-10 min after drug vs baseline, atropine 0.5 mg/kg, propranolol 1 mg/kg, mean±SE): −60±27 bpm
